In patent US9873705B2, “Vinylogous thioester compounds and methods of use” (THE TRUSTEES OF DARTMOUTH COLLEGE, priority 2015, dated 2018):
Entries after “also recorded” stand apart in the source; their conditions may differ.

Key:
[1] = system: BNIP3L/Nix in NF1+/+ and NF1−/− IMEC CRISPR cells; experiment: BNIP3L/Nix immunofluorescence; assay type: cell-based; conditions: 1 μM, 24 h, NF1−/− vs NF1+/+ IMEC CRISPR cells, vs DMSO
Excerpt: Mitochondria can also be removed via non-selective autophagy (21). To distinguish between inhibition of mitophagy and not non-selective autophagy, expression and localization of one mitophagy-specific receptors involved in […] mitophagy, BNIP3L/Nix, was examined via immunofluorescence (25) (FIG. 10). BNIP3 and its homologue BNIP3L/NIX are involved in hypoxia-induced mitophagy and are transcriptionally regulated through HIF in human cancers (27). BNIP3-mediated mitophagy is also reported to occur following perinuclear clustering and fragmentation of the mitochondria (28,29). Under hypoxic conditions, both BNIP3 and FUNDC1 are reported to localize to the outer mitochondrial membrane (30). Therefore, if mitophagy is inhibited with Y102 under hypoxic conditions, BNIP3, NIX/BNIP3L, and/or FUNDC1 should accumulate if Y102 inhibits […] mitophagy following receptor localization.
CRISPR technology was used to introduce mutated NF1 into mammalian IMEC cells in order to generate an isogenic system for the testing of compounds that mimics the yeast isogenic system used in the original screens.
The data for FIG. 10 was obtained as follows: NF1+/+ and NF1−/− IMEC CRISPR cells were plated on poly-L-lysine (Sigma) coated coverslips at a concentration of 50,000 cells/well in a 24-well plate and allowed to adhere overnight. […]

[2] = system: ira2Δ yeast (NF1 deficient yeast); experiment: Yeast growth inhibition (dose response) assay, OD600; assay type: cell-based, Saccharomyces cerevisiae; conditions: isogenic yeast system; 0 to 100 μM, 18 h
Excerpt: A high-throughput screen was used to identify compounds that are synthetically lethal with NF1 loss (14). A synthetic lethal interaction occurs when loss of two genes due to genetic deletion or pharmacologic inhibition is nonlethal independently but is lethal in combination (FIG. 1) (17). The first gene lost is NF1, and the loss of the second gene is mimicked through treatment with the screened compounds. The screen used Saccharomyces cerevisiae lacking IRA2 (ira2Δ), a yeast homologue of NF1, as a model for NF1 loss. ira2Δ yeast have increased RAS-GTP, which in turn activates MAPK and PKA pathways that mimic the pathways that are increased in NF1 deficient Schwann cells (18). […]
Candidate compounds were screened in ira2Δ yeast cells to identify target compounds synthetically lethal to NF1 loss. Growth inhibition of yeast was measured using the optical density of yeast cultures treated with compounds compared to DMSO control (14).
Growth inhibition assays as described above were performed on ira2Δ yeast cells and NF1-deficient glioblastoma cells. […] Following 18 h treatment, OD600 was measured using a THERMOmax (Molecular Devices) microplate reader and SOFTmax Pro 4.3 LS software. […] AlamarBlue fluorescence was determined with a Spectramax M2 (Molecular Devices) plate reader at an excitation of 544 nm and an emission of 590 nm using SoftMax Pro 3 software. […]

Cn1cnnc1S/C=C/C(=O)c1ccc(F)cc1 [Y102]
BNIP3L/Nix accumulation (mitophagy receptor) [1]: perinuclear clustering of the mitophagy receptor BNIP3L/NIX was observed; also recorded: accumulated with Y102 treatment moreso in NF1−/− cells than in NF1+/+ cells | sensitivity of NF1 deficient yeast (growth) [2]: selectively sensitive
